Experimental data taken from patent publication US12715891B2, “Iron complexes and salts thereof as contrast agents for MRI” (BRACCO IMAGING S.P.A., priority 2020, dated 2026).

Columns and labels:
[1] = Fixed-field relaxometric measurements in human serum and in water; format: physicochemical; details: for r1p / r2p: 1 T, 37° C.
Experimental: Fixed-field relaxometric measurements were performed using the [Fe(DFX)2Meg3] complex obtained as per Example 1, comparing it with two prior art complexes, Gd-DTPA and Fe-DTPA.

[2] = system: mice inoculated with tumour cells (ISA); experiment: In vivo MRI contrast enhancement (En %); details: 0.1 mmol/Kg
Experimental: The increase in contrast (En %) generated by the administration of the complex according to the present invention Fe(DFX)2, obtained as per Example 1 (0.1 mmol/Kg), was measured and compared with the one induced by the Gd-DTPA complex (known by the trade name of Magnevist) at the same dose and under the same experimental conditions. The measurements were performed (in vivo), under a fixed magnetic field of 3T and 7T, in mice inoculated with tumour cells (ISA). The images were acquired when the size of the subcutaneous tumour had reached about 1-2 cm (i.e. about 15-20 days after inoculation).

## CNC[C@H](O)[C@@H](O)[C@H](O)[C@H](O)CO.CNC[C@H](O)[C@@H](O)[C@H](O)[C@H](O)CO.O=C([O-])CN(CCN(CC(=O)[O-])CC(=O)O)CCN(CC(=O)[O-])CC(=O)O.[Gd+3] [Gd-DTPA, gadopentetic acid]
[1]; Human serum
  r1p: 4.1 (1 T, 37° C.)
  r2p: 4.8 (1 T, 37° C.)
[1]; human serum, 37° C. and 1T
  relaxivity in human serum: 3.4 mM⁻¹ s⁻¹
[1]; water
  r1p: 3.4 (1 T, 37° C.)
  r2p: 3.9 (1 T, 37° C.)
[2]
  renal excretion (kidneys and bladder contrast) compared with Fe(DFX)2: more rapid renal excretion
